Experimental data reported in patent US20050090433A1 (priority 2002, published 2005).
Values joined by “and” are separate entries in the source; they are usually repeats but may differ in a detail not shown here. Equal entries are not always repeated.

How the values were obtained:
[1] = test system: N,N′-diacetyl-Lys-D-Ala-D-Ala; assay: ITC of binding to tri-peptide, with and without HSA
Procedure: Antibiotics and peptides were dissolved in aqueous buffer (20 mM Na phosphate, 150 mM NaCl, pH 7.4) containing HSA, with gentle stirring immediately before each experiment. Peptide concentrations were determined by weight. […] HSA concentrations were determined by UV absorbance (HSA, ε280=37,700; A280^1%=5.44). Spectra were recorded at room temperature in 1 cm pathlength quartz cuvettes using Shimadzu UV-160A or UV-1601 spectrophotometers, with samples diluted quantitatively with buffer if necessary to give absorbance in the 0.1-1 A range.
Isothermal titration calorimetry was performed using a Microcal VP-ITC instrument at 25° C. and 37° C. using standard operating procedures. […] Samples were degassed gently prior to loading to prevent bubble formation in the calorimeter cell.

D-Ala-D-Ala = assay: ITC of binding to dipeptide; details: absence of serum proteins
Excerpt: (§1) Trans. R. Soc. Lond. Ser. A-Math. Phys. Eng. […] Wiley, (1998) p 103-111; and Cooper, A., Curr. Opin. Chem. Biol. (1999) 3, 557-563.

Lys-D-Ala-D-Lactate = assay: ITC of binding to Lys-D-Ala-D-Lactate; details: absence of serum proteins
Excerpt: as §1

Human albumin = Human albumin (Homo sapiens, UniProt P02768); assay: Protein binding by isothermal titration microcalorimetry; details: for Calculated percent Binding, Human albumin: albumin 6×10^−4 M assumed
Procedure: (§2) Integrated heat effects, after correction for heats of dilution, were analyzed by non-linear regression using a simple single-site binding model with the standard Microcal ORIGIN software package. Raw data (μcal/sec) for each injection were integrated to give the total heat effect per addition, then divided by amount of injectant to give kcal/mole of injectant. The same integration was applied for control dilution effects, and this was subtracted from the actual titration data. This provided a differential of the binding curve in which the extent of binding is proportional to the total heat liberated (or absorbed). This was then analyzed by non-linear regression methods in terms of various standard binding models.

human α-glycoprotein = assay: as above; details: protein […]10^−5 M assumed
Procedure: as §2

[2] = Multimer to monomer population by electrospray ion mass spectroscopy; assay type: physicochemical; details: dalbavancin 0.1 mg/ml in 8:2 water:isopropanol; teicoplanin 50 and 100 μg/mL in water
Procedure: Experiments were performed using an Applied Biosystem API III+mass spectrometer equipped with a TurboIonSpray source, a Triple Quadrupole analyzer, operating in positive ion mode.
The mass spectra were obtained in electrospray positive mode on a Finnigan LCQ^Deca ion trap instrument previously tuned and calibrated in electrospray mode using Ultramark 1621, caffeine and MRFA (L-metionyl-arginyl-phenilalanyl-arginine).
The mass spectra were obtained in electrospray positive mode on a Finnigan LCQ^Deca ion trap instrument previous tuned and calibrated in electrospray mode using Ultramark 1621, caffeine and MRFA (L-metionyl-arginyl-phenilalanyl-arginine).

[3] = target: N,N′-diacetyl-Lys-D-Ala-D-Ala; assay: ITC, 10 C, 0 uM HSA
[4] = target: N,N′-diacetyl-Lys-D-Ala-D-Ala; assay: ITC, 25 C, with 513 uM HSA
[5] = target: N,N′-diacetyl-Lys-D-Ala-D-Ala; assay: ITC, 25 C, 0 uM HSA

Sequence of Human albumin (P02768 25-609): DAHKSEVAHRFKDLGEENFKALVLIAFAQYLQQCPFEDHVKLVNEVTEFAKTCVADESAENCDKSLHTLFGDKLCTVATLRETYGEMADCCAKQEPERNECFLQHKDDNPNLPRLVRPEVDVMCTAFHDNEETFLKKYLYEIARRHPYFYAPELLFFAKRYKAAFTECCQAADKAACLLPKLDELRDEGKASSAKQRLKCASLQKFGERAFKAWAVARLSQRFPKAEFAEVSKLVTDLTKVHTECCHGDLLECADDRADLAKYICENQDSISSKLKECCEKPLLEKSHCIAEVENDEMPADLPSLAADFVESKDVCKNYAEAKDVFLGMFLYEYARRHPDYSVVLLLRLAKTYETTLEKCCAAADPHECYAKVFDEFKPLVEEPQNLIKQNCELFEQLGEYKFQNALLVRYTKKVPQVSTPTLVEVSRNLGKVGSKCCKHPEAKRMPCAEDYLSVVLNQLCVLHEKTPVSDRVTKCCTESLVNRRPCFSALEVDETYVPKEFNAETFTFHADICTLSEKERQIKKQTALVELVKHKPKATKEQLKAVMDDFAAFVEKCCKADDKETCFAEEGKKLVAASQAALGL

CN[C@H](CC(C)C)C(=O)N[C@H]1C(=O)N[C@@H](CC(N)=O)C(=O)N[C@H]2C(=O)N[C@H]3C(=O)N[C@H](C(=O)N[C@H](C(=O)O)c4cc(O)cc(O)c4-c4cc3ccc4O)[C@H](O)c3ccc(c(Cl)c3)Oc3cc2cc(c3O[C@@H]2O[C@H](CO)[C@@H](O)[C@H](O)[C@H]2O[C@H]2C[C@](C)(N)[C@H](O)[C@H](C)O2)Oc2ccc(cc2Cl)[C@H]1O [Vancomycin]
Kass ([1]; 10 °C, [HSA] 0 μM): 6.90E+05 L M^−1 | Kass ([1]; 25 °C, [HSA] 0 μM): 3.40E+05 L M^−1 and 3.60E+05 L M^−1 | Kass ([1]; 25 °C, [HSA] 513 μM): 2.90E+05 L M^−1 | Binding to tri-peptide in the presence of HSA vs absence ([1]; control ITC experiments): comparable to those seen in the absence of HSA | Binding to dipeptide (D-Ala-D-Ala) (D-Ala-D-Ala): no evidence of binding | Binding to Lys-D-Ala-D-Lactate (Lys-D-Ala-D-Lactate): no evidence of binding

Teicoplanin
Apparent binding affinity Ka, Human albumin (Human albumin; 25° C., pH 7.4, ± SD of fit): 0.96 (±0.08) ×10^5 M^−1 | Calculated percent Binding, Human albumin (Human albumin; antibiotic 1 μM): 98.3% | Calculated percent Binding, Human albumin (Human albumin; antibiotic 10 μM): 98.3% | Calculated percent Binding, Human albumin (Human albumin; antibiotic 100 μM): 98.0% | Calculated percent Binding, Human α-glycoprotein (human α-glycoprotein; antibiotic 1 μM): 9.6% | Calculated percent Binding, Human α-glycoprotein (human α-glycoprotein; antibiotic 10 μM): 9.1% | Calculated percent Binding, Human α-glycoprotein (human α-glycoprotein; antibiotic 100 μM): 6.0% | Multimers in solution (ESI-MS) [2]: does not show multimeric complexes in solution

vancomycin hydrochloride (peptide)
Kd [3]: 1.45 µM | ΔH [3]: -9.49 kcal/mol | ΔS [3]: -6.8 eu | Kd [4]: 3.45 µM | ΔH [4]: -10.1 kcal/mol | ΔS [4]: -8.8 eu | Kd [5]: 2.94 µM and 2.78 µM | ΔH [5]: -10.7 kcal/mol and -12.9 kcal/mol | ΔS [5]: -10.6 eu and -17.8 eu
